{"source": "patent US5760027A", "about": "“Use of 7-alkylidene cephalosporins to inhibit elastase activity” (Research Corporation Technologies, Inc., priority 1996, dated 1998)", "origin": "cited, not measured here", "system": "b-lactamase", "settings": "commercial b-lactamase inhibitors, for comparison; cited from earlier work"}
{"compound": "O=C(O)[C@H]1/C(=C/CO)O[C@@H]2CC(=O)N21", "note": "[clavulanic acid]", "values": [{"measurement": "ratio at which inhibitor must be used", "value": "200 to 1"}]}
